Reference: ChEMBL document CHEMBL4680292, “Neothalfine, a potent natural anti-tumor agent against metastatic colorectal cancer and its primary mechanism” (Bioorg Med Chem, 2021)
Active and inactive are the calls of the source. The calls are words filed in the database; no cut-off is given here.

Assays:
MDA-MB-231 [1] = experiment: Cytotoxicity against human MDA-MB-231 cells assessed as reduction in cell growth at 15 uM measured after 48 hrs; assay type: functional, cell-based
SW-620 [2] = experiment: Induction apoptosis in human SW-620 cells assessed as increase in live cells at 7 nM measured after 72 hrs by Annexin VFITC /PI staining with flow cytometry (reference value: 92.6%); assay type: functional
MHCC97H [3] = experiment: Anticancer activity against human MHCC97H cells assessed as inhibition of cell proliferation measured after 72 hrs by MTT assay; assay type: functional, cell-based
SW-620 [4] = experiment: Inhibition of colony formation in human SW-620 cells assessed as damaged tumor spheres at 3.5 to 30 nM by crystal violet staining based microscopic analysis; assay type: functional, cell-based; conditions: dose 3.5-30 nM
SW-620 [5] = experiment: Induction of mitochondrial membrane potential loss in human SW-620 cells at 3.5 nM by JC-1 staining based fluorescence microscopic analysis; assay type: functional, cell-based
T98G [6] = experiment: Anticancer activity against human T98G cells assessed as inhibition of cell proliferation measured after 72 hrs by MTT assay; assay type: functional, cell-based
SMMC-7721 [7] = experiment: Anticancer activity against human SMMC-7721 cells assessed as inhibition of cell proliferation measured after 72 hrs by MTT assay; assay type: functional, cell-based; conditions: SMMC-7721, 72 h
MDA-MB-231 [8] = experiment: Anticancer activity against human MDA-MB-231 cells assessed as inhibition of cell proliferation measured after 72 hrs by MTT assay; assay type: functional, cell-based; conditions: MDA-MB-231, 72 h
HCT-116 [9] = experiment: Cytotoxicity against human HCT-116 cells assessed as reduction in cell growth at 15 uM measured after 48 hrs; assay type: functional, cell-based
MHCC97H [10] = experiment: Cytotoxicity against human MHCC97H cells assessed as reduction in cell growth at 15 uM measured after 48 hrs; assay type: functional, cell-based
SW-620 [11] = experiment: Induction of apoptosis in human SW-620 cells assessed as increase in cleaved caspase 3/7 level at 11.5 nM relative to control; assay type: functional
SW-620 [12] = experiment: Induction of cell cycle arrest in human SW-620 cells assessed as increase in number of cells at G2/M phase at 7 nM measured after 72 hrs by PI staining using flow cytometry (reference value: 27.08%); assay type: functional
T84 [13] = experiment: Anticancer activity against human T84 cells assessed as inhibition of cell proliferation measured after 72 hrs by MTT assay; assay type: functional, cell-based; conditions: T84, 72 h
SW-620 [14] = experiment: Induction apoptosis in human SW-620 cells assessed as increase in early apoptotic cells at 7 nM measured after 72 hrs by Annexin VFITC /PI staining with flow cytometry (reference value: 4.08%); assay type: functional
NCI-H1299 [15] = experiment: Anticancer activity against human NCI-H1299 cells assessed as inhibition of cell proliferation measured after 72 hrs by MTT assay; assay type: functional, cell-based; conditions: NCI-H1299, 72 h
SW-620 [16] = experiment: Induction of apoptosis in human SW-620 cells assessed as increase in cleaved caspase 3/7 level at 3.5 nM relative to control; assay type: functional
NCI-H1299 [17] = experiment: Cytotoxicity against human NCI-H1299 cells assessed as reduction in cell growth at 15 uM measured after 48 hrs; assay type: functional, cell-based
T84 [18] = experiment: Cytotoxicity against human T84 cells reduction in cell growth at 15 uM measured after 48 hrs; assay type: functional, cell-based
T98G [19] = experiment: Cytotoxicity against human T98G cells assessed as reduction in cell growth at 15 uM measured after 48 hrs; assay type: functional, cell-based
SK-OV-3 [20] = experiment: Cytotoxicity against human SK-OV-3 cells assessed as reduction in cell growth at 15 uM measured after 48 hrs; assay type: functional, cell-based
SW-620 [21] = experiment: Induction of cell cycle arrest in human SW-620 cells assessed as increase in number of cells at G0/G1 phase at 7 nM measured after 72 hrs by PI staining using flow cytometry (reference value: 60.05%); assay type: functional
SW-620 [22] = experiment: Induction apoptosis in human SW-620 cells assessed as increase in necrotic cells apoptotic cells at 7 nM measured after 72 hrs by Annexin VFITC /PI staining with flow cytometry (reference value: 0.24%); assay type: functional
PC-3 [23] = experiment: Anticancer activity against human PC-3 cells assessed as inhibition of cell proliferation measured after 72 hrs by MTT assay; assay type: functional, cell-based; conditions: PC-3, 72 h
SMMC-7721 [24] = experiment: Cytotoxicity against human SMMC-7721 cells assessed as reduction in cell growth at 15 uM measured after 48 hrs; assay type: functional, cell-based
SW-620 [25] = experiment: Induction of apoptosis in human SW-620 cells assessed as increase in cleaved caspase 3/7 level at 7 nM relative to control; assay type: functional
PC-3 [26] = experiment: Cytotoxicity against human PC-3 cells assessed as reduction in cell growth at 15 uM measured after 48 hrs; assay type: functional, cell-based
SW-620 [27] = experiment: Induction apoptosis in human SW-620 cells assessed as increase in late apoptotic cells at 15 nM measured after 72 hrs by Annexin VFITC /PI staining with flow cytometry (reference value: 3.18%); assay type: functional
SW-620 [28] = experiment: Cytotoxicity against human SW-620 cells assessed as reduction in cell growth at 15 uM measured after 48 hrs; assay type: functional, cell-based
SW-620 [29] = experiment: Anticancer activity against human SW-620 cells assessed as inhibition of cell proliferation measured after 72 hrs by MTT assay; assay type: functional, cell-based; conditions: SW-620, 72 h
SW-620 [30] = experiment: Induction of apoptosis in human SW-620 cells assessed as increase in cleaved caspase 3/7 level at 15 nM relative to control; assay type: functional
SW-620 [31] = experiment: Induction apoptosis in human SW-620 cells assessed as increase in live cells at 15 nM measured after 72 hrs by Annexin VFITC /PI staining with flow cytometry (reference value: 92.6%); assay type: functional
HCT-116 [32] = experiment: Anticancer activity against human HCT-116 cells assessed as inhibition of cell proliferation measured after 72 hrs by MTT assay; assay type: functional, cell-based; conditions: HCT-116, 72 h
SW-620 [33] = experiment: Induction apoptosis in human SW-620 cells assessed as increase in necrotic cells apoptotic cells at 15 nM measured after 72 hrs by Annexin VFITC /PI staining with flow cytometry (reference value: 0.24%); assay type: functional
SK-OV-3 [34] = experiment: Anticancer activity against human SK-OV-3 cells assessed as inhibition of cell proliferation measured after 72 hrs by MTT assay; assay type: functional, cell-based; conditions: SK-OV-3, 72 h
SW-620 [35] = experiment: Induction apoptosis in human SW-620 cells assessed as increase in early apoptotic cells at 15 nM measured after 72 hrs by Annexin VFITC /PI staining with flow cytometry (reference value: 4.08%); assay type: functional
SW-620 [36] = experiment: Induction apoptosis in human SW-620 cells assessed as increase in late apoptotic cells at 7 nM measured after 72 hrs by Annexin VFITC /PI staining with flow cytometry (reference value: 3.18%); assay type: functional
SW-620 [37] = experiment: Induction apoptosis in human SW-620 cells assessed as increase in necrotic cells apoptotic cells at 12 uM measured after 72 hrs by Annexin VFITC /PI staining with flow cytometry (reference value: 0.24%); assay type: functional
SW-620 [38] = experiment: Induction apoptosis in human SW-620 cells assessed as increase in early apoptotic cells at 12 uM measured after 72 hrs by Annexin VFITC /PI staining with flow cytometry (reference value: 4.08%); assay type: functional
SW-620 [39] = experiment: Induction of cell cycle arrest in human SW-620 cells assessed as increase in number of cells at G0/G1 phase at 6 uM measured after 72 hrs by PI staining using flow cytometry (reference value: 60.05%); assay type: functional
SW-620 [40] = experiment: Induction apoptosis in human SW-620 cells assessed as increase in late apoptotic cells at 12 uM measured after 72 hrs by Annexin VFITC /PI staining with flow cytometry (reference value: 3.18%); assay type: functional
SW-620 [41] = experiment: Induction apoptosis in human SW-620 cells assessed as increase in early apoptotic cells at 6 uM measured after 72 hrs by Annexin VFITC /PI staining with flow cytometry (reference value: 4.08%); assay type: functional
SW-620 [42] = experiment: Induction apoptosis in human SW-620 cells assessed as increase in live cells at 6 uM measured after 72 hrs by Annexin VFITC /PI staining with flow cytometry (reference value: 92.6%); assay type: functional
SW-620 [43] = experiment: Inhibition of colony formation in human SW-620 cells assessed as effect on tumor sphere formation at 30 nM by crystal violet staining based microscopic analysis; assay type: functional, cell-based
SW-620 [44] = experiment: Induction apoptosis in human SW-620 cells assessed as increase in necrotic cells apoptotic cells at 6 uM measured after 72 hrs by Annexin VFITC /PI staining with flow cytometry (reference value: 0.24%); assay type: functional
SW-620 [45] = experiment: Induction apoptosis in human SW-620 cells assessed as increase in live cells at 12 uM measured after 72 hrs by Annexin VFITC /PI staining with flow cytometry (reference value: 92.6%); assay type: functional
SW-620 [46] = experiment: Induction apoptosis in human SW-620 cells assessed as increase in late apoptotic cells at 6 uM measured after 72 hrs by Annexin VFITC /PI staining with flow cytometry (reference value: 3.18%); assay type: functional
SW-620 [47] = experiment: Inhibition of colony formation in human SW-620 cells assessed as damaged tumor sphere at 3 to 6 uM by crystal violet staining based microscopic analysis; assay type: functional, cell-based; conditions: dose 3-6 µM
SW-620 [48] = experiment: Induction of cell cycle arrest in human SW-620 cells assessed as increase in number of cells at G2/M phase at 6 uM measured after 72 hrs by PI staining using flow cytometry (reference value: 27.08%); assay type: functional

Q: What does the source list for `COc1ccc2cc1Oc1ccc(cc1)Cc1nccc3c4c(c(OC)c(c13)Oc1c3c(cc(OC)c1OC)[C@H](C2)N(C)CC3)OCO4`?
A: Activity (MDA-MB-231 [1]): Active; Activity (SW-620 [2]): 82.74%; IC50 (MHCC97H [3]): 145 nM; inhibition (SW-620 [4]): Active; Activity (SW-620 [5]): Active; IC50 (T98G [6]): 382 nM; IC50 (SMMC-7721 [7]): 73 nM; IC50 (MDA-MB-231 [8]): 467 nM; Activity (HCT-116 [9]): Active; Activity (MHCC97H [10]): Active; fold change (FC) (SW-620 [11]): 9.3; Activity (SW-620 [12]): 41%; IC50 (T84 [13]): 8.2 nM; Activity (SW-620 [14]): 8.7%; IC50 (NCI-H1299 [15]): 132 nM; fold change (FC) (SW-620 [16]): 3.3; Activity (NCI-H1299 [17]): Active; Activity (T84 [18]): Active; Activity (T98G [19]): Active; Activity (SK-OV-3 [20]): Active; Activity (SW-620 [21]): 46.37%; Activity (SW-620 [22]): 1.2%; IC50 (PC-3 [23]): 661 nM; Activity (SMMC-7721 [24]): Active; fold change (FC) (SW-620 [25]): 8.2; Activity (PC-3 [26]): Active; Activity (SW-620 [27]): 4.83%; Activity (SW-620 [28]): Active; IC50 (SW-620 [29]): 5.9 nM; fold change (FC) (SW-620 [30]): 12.9; Activity (SW-620 [31]): 69.82%; IC50 (HCT-116 [32]): 7.2 nM; Activity (SW-620 [33]): 0.15%; IC50 (SK-OV-3 [34]): 180 nM; Activity (SW-620 [35]): 26.2%; Activity (SW-620 [36]): 7.36%

Q: `CCc1c2c(nc3ccc(OC(=O)N4CCC(N5CCCCC5)CC4)cc13)-c1cc3c(c(=O)n1C2)COC(=O)[C@]3(O)CC` [IRINOTECAN] was tested. Which Activity (SW-620 [37]) did it give?
A: Its Activity is 0.34%.

Q: And the Activity (SW-620 [38])?
A: The Activity was 13.18%.

Q: And the IC50 (T84 [13])?
A: Its IC50 is 6.9 nM.

Q: And the Activity (SW-620 [39])?
A: The Activity was 33.53%.

Q: What about the Activity (SW-620 [40]) of the same compound?
A: The Activity was 5.3%.

Q: And the Activity (SW-620 [41])?
A: Its Activity is 7.84%.

Q: And the Activity (SW-620 [42])?
A: The Activity was 87.7%.

Q: And the inhibition (SW-620 [43])?
A: The inhibition was “inactive”.

Q: What about the Activity (SW-620 [44]) of the same compound?
A: The Activity was 0.34%.

Q: What about the Activity (SW-620 [45]) of the same compound?
A: Its Activity is 81.18%.

Q: What about the IC50 (SW-620 [29]) of the same compound?
A: The IC50 was 5.1 nM.

Q: What about the Activity (SW-620 [46]) of the same compound?
A: Its Activity is 4.12%.

Q: What about the inhibition (SW-620 [47]) of the same compound?
A: Its inhibition is “Active”.

Q: What about the IC50 (HCT-116 [32]) of the same compound?
A: The IC50 was 4.4 nM.

Q: And the Activity (SW-620 [48])?
A: Its Activity is 55.12%.

Q: With `CC(=O)O[C@@]12CO[C@@H]1C[C@H](O)[C@@]1(C)C(=O)[C@H](O)C3=C(C)[C@@H](OC(=O)[C@H](O)[C@@H](NC(=O)OC(C)(C)C)c4ccccc4)C[C@@](O)([C@@H](OC(=O)c4ccccc4)[C@H]21)C3(C)C` [DOCETAXEL ANHYDROUS] as the compound, how does the IC50 (T84 [13]) read?
A: The IC50 was 2.7 nM.

Q: And the IC50 (SW-620 [29])?
A: Its IC50 is 4.7 nM.

Q: And the IC50 (HCT-116 [32])?
A: Its IC50 is 4 nM.
